Among the data in patent US8580795B2, “Heterocyclic compounds as phosphodiesterase inhibitors” (Orchid Chemicals & Pharmaceuticals Limited, priority 2009, dated 2013) are inhibition values, retold here.

The subject of one test is TNF-α. Kind of test: In vitro measurement of TNF-α production in LPS-stimulated human PBMC (ELISA). The following applies: 100 nM compound, LPS 1 μg/mL, 18 h, NA: Not active. Type of test: cell-based. Here is the method: Biological Activity In Vitro Measurement of Tumor Necrosis Factor Alpha (TNF-α):
This assay determines the effect of test compounds on the production of TNF-α in human Peripheral Blood Mononuclear Cells (PBMC). Compounds were tested for their ability to inhibit the activity of TNF α in human PBMC. PBMC were isolated from blood (of healthy volunteers) using BD Vacutainer CPT™ (Cell preparation tube, BD Bio Science) and suspended in RPMI (Rosewell park memorial institute) medium (Physiol. Res. 2003, 52, 593-598). The test compounds were pre-incubated with PBMC (0.5 million/incubation well) for 15 minutes at 37° C. and then stimulated with Lipopolysaccharide (Escherichia coli: B4; 1 μg/mL) for 18 h at 37° C. in 5% CO2. The levels of TNF-α in the cell culture medium were estimated using enzyme-linked immunosorbent assay performed in a 96 well format as per the procedure of the manufacturer (Cayman Chemical, Ann Arbor, USA).

For test [1], the target named is human PDE4B enzyme (PDE4B2) (Homo sapiens, UniProt Q07343). The test is described as follows: Phosphodiesterase 4 screening assay (SPA, [3H]-cAMP). It is filed as biochemical. The settings on record: 100 nM compound; 0.5 μM cAMP. Here is the method:
Phosphodiesterase 4 Screening Assay:
PDE4 (Phosphodiesterase type IV) enzymes convert cyclic AMP (cAMP) into AMP. The assay is performed to determine the effect of test compounds on the inhibition of purified human PDE4B enzyme.
The assay involves the detection of the Tritiated AMP (product) using SPA beads known as yittrium silicate. The linear AMP bind preferentially to SPA yittrium silicate beads compared to cyclic nucleotides in the presence of zinc sulphate. The binding of the radiolabelled product to the bead brings the isotope into close proximity to allow radiation from the tritium to excite the scintillant within the bead to emit light. The unbound radiolabel is not close enough to allow this energy transfer and the light emitted due to the binding of tritiated AMP is detected as cpm (counts per minute).
PDE Activity (SPA Based Assay Protocol):
PDE4B activity was inhibited by the compounds according to the invention in a modified SPA (scintillation proximity assay) test, supplied by GE Healthcare Life Sciences (see procedural instructions “Phosphodiesterase [^3H]-cAMP SPA enzyme assay, code TRKQ 7090”), carried out in 96-well microtitre plates. The test volume is 100 μL and contains 50 mM Tris buffer (pH 7.4), 8.3 mM Mg^2+, in the presence of inhibitor or test compound, and containing PDE4B2 enzyme (sufficient to ensure that 10-20% of the cAMP is converted, under the said experimental conditions). […] After a pre-incubation of 5 minutes at 37° C., the reaction is started by adding the substrate (cAMP; 0.5 μM cAMP, including about 50,000 cpm of [^3H]-cAMP) and the assays are incubated for a further 10 minutes; after that, they are stopped by adding SPA beads containing 18 mM ZnSO4 (50 μl). After the beads have been sedimented (>30 minutes), the microtitre plates are analyzed in a Microplate luminescence detection device (TopCount* NXT; PerkinElmer Life Sciences). Where, the signal in the absence of enzyme is defined as the background. 100% activity was defined as the signal detected in the presence of enzyme and DMSO with the background subtracted. The corresponding IC50 values of the compounds for the inhibition of PDE4B2 activity are determined from the concentration-effect curves by means of non-linear regression fit of the standard 4-parameter/multiple binding sites equation from a eight- to ten-point titration. (Catherine B. et al. Anal. Biochem., 1999, 275(2), pp. 148-155, David M. E. Biochem. Pharmacol., 1999, 57, pp. 965-973)

Sequence of human PDE4B enzyme (PDE4B2) (Q07343 1-564 isoform Q07343-2): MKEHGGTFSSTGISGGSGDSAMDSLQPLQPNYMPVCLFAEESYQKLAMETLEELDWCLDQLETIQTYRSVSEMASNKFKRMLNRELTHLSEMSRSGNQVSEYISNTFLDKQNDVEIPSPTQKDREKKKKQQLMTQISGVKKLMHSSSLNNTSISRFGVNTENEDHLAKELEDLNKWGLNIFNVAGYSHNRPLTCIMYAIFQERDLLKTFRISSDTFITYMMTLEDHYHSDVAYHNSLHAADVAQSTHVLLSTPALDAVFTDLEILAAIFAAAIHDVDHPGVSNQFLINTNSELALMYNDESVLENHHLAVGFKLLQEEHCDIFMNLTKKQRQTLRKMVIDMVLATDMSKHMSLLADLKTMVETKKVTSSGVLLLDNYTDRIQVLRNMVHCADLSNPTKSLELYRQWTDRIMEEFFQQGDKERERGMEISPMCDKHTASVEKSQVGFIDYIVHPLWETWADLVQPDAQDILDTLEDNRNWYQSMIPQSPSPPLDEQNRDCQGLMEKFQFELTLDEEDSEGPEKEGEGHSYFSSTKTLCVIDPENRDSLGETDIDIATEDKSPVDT

With `COc1ccc(-c2nc(C(=O)NC3CCC(O)CC3)cs2)c2c1oc1ccccc12` (stereo not drawn) [Example 31, N-(4-Hydroxycyclohexyl)-2-(4-methoxydibenzo[b,d]furan-1-yl)-1,3-thiazole-4-carboxamide], the inhibition (usually the drop in the measured response relative to a control, in per cent) at 0.1 µM with TNF-α turned out to be 63.1%. Take `COc1ccc(-c2nc3ncccc3o2)c2c1oc1ccccc12` [Example 75, 2-(4-Methoxydibenzo[b,d]furan-1-yl)[1,3]oxazolo[4,5-b]pyridine]: the inhibition at 0.1 µM in test [1] was found to be 37.2%.

In the test on TNF-α, `CONC(=O)c1nc(-c2ccc(OC(F)F)c3oc4ccc(NS(C)(=O)=O)cc4c23)sc1C` [Example 37, 2-(4-(Difluoromethoxy)-8-(methylsulfonamido)dibenzo[b,d]furan-1-yl)-N-methoxy-5-methyl-1,3-thiazole-4-carboxamide] came in with an inhibition at 0.1 µM of 35.4%. Compound `COc1ccc(-c2nc(CC(=O)Nc3c(Cl)cncc3Cl)cs2)c2c1oc1ccccc12` [Example 12, N-(3,5-Dichloropyridin-4-yl)-2-(2-(4-methoxydibenzo[b,d]furan-1-yl)-1,3-thiazol-4-yl)acetamide] registered an inhibition at 0.1 µM in test [1] of 8.92%. On to `COc1ccc(-c2nc(C(=O)NC3CCC(O)CC3)c(C)s2)c2c1oc1ccccc12` (stereo not drawn) [Example 27, N-(4-Hydroxycyclohexyl)-2-(4-methoxydibenzo[b,d]furan-1-yl)-5-methyl-1,3-thiazole-4-carboxamide], for which, in the test on TNF-α, at 0.1 µM the inhibition was 82.7%. In test [1], `COc1ccc(-c2nc(C(=O)NC3CC3)co2)c2c1oc1ccccc12` [Example 70, N-Cyclopropyl-2-(4-methoxydibenzo[b,d]furan-1-yl)-1,3-oxazole-4-carboxamide] yielded an inhibition at 0.1 µM of 2.34%.

In turn, `COc1ccc(-c2nc(C(=O)N3CCN(c4ncccn4)CC3)cs2)c2c1oc1ccccc12` [Example 18, (2-(4-Methoxydibenzo[b,d]furan-1-yl)-1,3-thiazol-4-yl)(4-(pyrimidin-2-yl)piperazin-1-yl)methanone] registered an inhibition at 0.1 µM in test [1] of 25.8%. The compound `COc1ccc(-c2nc(C(=O)O)cs2)c2c1oc1ccccc12` [Example 16, 2-(4-Methoxydibenzo[b,d]furan-1-yl)-1,3-thiazole-4-carboxylic acid] displayed an inhibition at 0.1 µM in test [1] of 36%. As to `COc1ccc(-c2nc(C)c(C(=O)O)s2)c2c1oc1ccccc12` [Example 23, 2-(4-Methoxydibenzo[b,d]furan-1-yl)-4-methyl-1,3-thiazole-5-carboxylic acid], the inhibition at 0.1 µM in test [1] was 16.8%. With `COc1ccc(-c2nc(C(=O)N3CCN(c4ccccn4)CC3)cs2)c2c1oc1ccccc12` [Example 19, (2-(4-Methoxydibenzo[b,d]furan-1-yl)-1,3-thiazol-4-yl)(4-(pyridin-2-yl)piperazin-1-yl)methanone], in test [1], the inhibition at 0.1 µM was 21.9%. `COc1ccc(-c2csc(-c3ccc(OC)c4oc5ccccc5c34)n2)cc1` [Example 22, 2-(4-Methoxydibenzo[b,d]furan-1-yl)-4-(4-methoxyphenyl)-1,3-thiazole]: testing at 0.1 µM in test [1] gave an inhibition of 19.4%. Regarding `COc1ccc(-c2nc(C(N)=O)c(C)o2)c2c1oc1ccccc12` [Example 58, 2-(4-Methoxydibenzo[b,d]furan-1-yl)-5-methyl-1,3-oxazole-4-carboxamide], testing at 0.1 µM in test [1] gave an inhibition of 64.1%. With `COc1ccc(-c2nc(-c3ccc(C#N)cc3)cs2)c2c1oc1ccccc12` [Example 8, 4-(2-(4-Methoxydibenzo[b,d]furan-1-yl)-1,3-thiazol-4-yl)benzonitrile], in test [1], the inhibition at 0.1 µM was found to be 5.16%. The compound `COc1ccc(-c2nc3cc(C(=O)O)ccc3o2)c2c1oc1ccccc12` [Example 72, 2-(4-Methoxydibenzo[b,d]furan-1-yl)-1,3-benzo[d]oxazole-5-carboxylic acid] yielded an inhibition at 0.1 µM in test [1] of 22.2%. For `COc1ccc(-c2nc(C(N)=O)co2)c2c1oc1ccccc12` [Example 67, 2-(4-Methoxydibenzo[b,d]furan-1-yl)-1,3-oxazole-4-carboxamide], at 0.1 µM the inhibition in test [1] was 22.8%. In test [1], `COc1ccc(-c2nc3cc(C(N)=O)ccc3o2)c2c1oc1ccccc12` [Example 73, 2-(4-Methoxydibenzo[b,d]furan-1-yl)-1,3-benzo[d]oxazole-5-carboxamide] returned an inhibition at 0.1 µM of 18.1%. In turn, `CNC(=O)c1coc(-c2ccc(OC)c3oc4ccccc4c23)n1` [Example 69, 2-(4-Methoxydibenzo[b,d]furan-1-yl)-N-methyl-1,3-oxazole-4-carboxamide] had an inhibition at 0.1 µM in test [1] of 33.3%. As to `COc1ccc(-c2nc(C(=O)Nc3ccc(Cl)cc3)cs2)c2c1oc1ccccc12` [Example 20, N-(4-Chlorophenyl)-2-(4-methoxydibenzo[b,d]furan-1-yl)-1,3-thiazole-4-carboxamide], the inhibition at 0.1 µM in test [1] was determined as 2.98%. The compound `COc1ccc(-c2nc3ccccc3o2)c2c1oc1ccccc12` [Example 74, 2-(4-Methoxydibenzo[b,d]furan-1-yl)-1,3-benzo[d]oxazole] displayed an inhibition at 0.1 µM in test [1] of 54.9%. Take `COc1ccc(-c2nc(C(=O)N3CCCC3)co2)c2c1oc1ccccc12` [Example 71, [2-(4-Methoxydibenzo[b,d]furan-1-yl)-1,3-oxazol-4-yl](pyrrolidin-1-yl)methanone]: the inhibition at 0.1 µM in test [1] came out at 20.3%. Take `CCOC(=O)c1csc(-c2ccc(OC)c3oc4ccccc4c23)n1` [Example 15, Ethyl 2-(4-methoxydibenzo[b,d]furan-1-yl)-1,3-thiazole-4-carboxylate]: in test [1], the inhibition at 0.1 µM was 17.6%. For the compound `COc1ccc(-c2nc3cc(C(=O)NC4CCC(O)CC4)ccc3o2)c2c1oc1ccccc12` (stereo not drawn) [Example 77, N-(4-Hydroxycyclohexyl)-2-(4-methoxydibenzo[b,d]furan-1-yl)-1,3-benzo[d]oxazole-5-carboxamide], at 0.1 µM the inhibition in test [1] was 55.3%. In turn, `CCNC(=O)c1nc(-c2ccc(OC)c3oc4ccccc4c23)oc1C` [Example 57, N-Ethyl 2-(4-methoxydibenzo[b,d]furan-1-yl)-5-methyl-1,3-oxazole-4-carboxamide] had an inhibition at 0.1 µM in test [1] of 32.5%. The same measure, in the same setting: then `COc1ccc(-c2nc(C(=O)NC3CCC(O)CC3)c(C)o2)c2c1oc1ccccc12` (stereo not drawn) [Example 60, N-(4-Hydroxycyclohexyl)-2-(4-methoxydibenzo[b,d]furan-1-yl)-5-methyl-1,3-oxazole-4-Carboxamide], with 47.3%; and `COc1ccc(-c2nc(C(=O)N3CCN(c4ncc(C(=O)O)cn4)CC3)co2)c2c1oc1ccccc12` [Example 66, 2-(4-(2-(4-Methoxydibenzo[b,d]furan-1-yl)oxazole-4-carbonyl)piperazin-1-yl)pyrimidine-5-carboxylic acid], with 18.9%.

In test [1], `CCOC(=O)c1sc(-c2ccc(OC)c3oc4ccccc4c23)nc1C` [Example 21, Ethyl 2-(4-methoxydibenzo[b,d]furan-1-yl)-4-methyl-1,3-thiazole-5-carboxylate] yielded an inhibition at 0.1 µM of 9.1%. Consider `CS(=O)(=O)Nc1ccc2oc3c(OC(F)F)ccc(-c4nc(C(=O)O)co4)c3c2c1` [Example 49, 2-(4-(Difluoromethoxy)-8-(methylsulfonamido)dibenzo[b,d]furan-1-yl)-1,3-oxazole-4-carboxylic acid], for which the inhibition at 0.1 µM in test [1] came out at 59.5%. `COc1ccc(-c2nc(C(=O)Nc3ccccc3)cs2)c2c1oc1ccccc12` [Example 17, 2-(4-Methoxydibenzo[b,d]furan-1-yl)-N-phenyl-1,3-thiazole-4-carboxamide] yielded an inhibition at 0.1 µM in test [1] of 2.42%.

Compound `COc1ccc(-c2nc3cc(C(=O)NC4CCCC4)ccc3o2)c2c1oc1ccccc12` [Example 76, N-Cyclopentyl-2-(4-methoxydibenzo[b,d]furan-1-yl)-1,3-benzo[d]oxazole-5-carboxamide] registered an inhibition at 0.1 µM in test [1] of 48.3%. In turn, `COc1ccc(-c2nc(C(=O)NC(C)C)c(C)o2)c2c1oc1ccccc12` [Example 61, 2-(4-Methoxydibenzo[b,d]furan-1-yl)-5-methyl-N-(propan-2-yl)-1,3-oxazole-4-carboxamide] came in with an inhibition at 0.1 µM in test [1] of 44.3%.
